From ChEMBL document CHEMBL1201862, “PubChem BioAssay data set” (2004)
Calls of active or inactive are those of the source.

What was measured:
[1] = target: FAD-linked sulfhydryl oxidase ALR (Homo sapiens, UniProt P55789); test: ALR-catalysed DTT oxidation blockers – biochemical, H2O2 detection, luminescence, cherry-pick, dose response (AID 493248)
[2] = microbe, parasite or virus in culture; type: functional; settings: Mycobacterium tuberculosis
[3] = Luminescence Cell-Based Dose Confirmation HTS to Identify Activators of 5'UTR Stem-Loop Driven Alpha-Synuclein mRNA Translation in H4 Neuroglioblastoma Cells. [Related pubchem assays: 1829 (Project Summary), 1814 (Primary HTS)]; type: functional
[4] = Luminescence Cell-Based Dose Response HTS to Identify Activators of Luciferase Translation or Activity in H4 […] Cells. [Related pubchem assays: 1829 (Project Summary), 1814 (Primary HTS)]; type: functional
H4 = test: Luminescence Cell-Based Dose Response HTS to Identify Activators of 5'UTR Stem-Loop Driven Prion Protein mRNA Translation in H4 Neuroglioblastoma Cells. [Related pubchem assays: 1829 (Project Summary), 1814 (Primary HTS)]; type: functional; settings: Homo sapiens
[5] = viability of PTEN-deleted HCT116 cells – cell-based, HCT116 PTEN knockout, dose response (AID 1047); type: functional;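 further: HCT116 colon tumor cells with PTEN knocked out; cells exposed to compound for 60 hours before readout; potency for loss of cell viability measured by luminescence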
[6] = viability of HCT116 lacking mutant beta-catenin – cell-based, human colon tumor, dose response (AID 1045); type: functional;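 further: HCT116 colon tumor cells with beta catenin knocked out; cells exposed to compound for 60 hours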
[7] = target: T1, Carboxy-terminal domain RNA polymerase II polypeptide A small phosphatase 1 (Homo sapiens, UniProt Q9GZU7); test: CTDSP1 inhibitors, concentration-response, biochemical, absorbance readout, ultra-high-throughput screen actives (AID 540297); type: functional
T1 sequence (Q9GZU7 whole entry): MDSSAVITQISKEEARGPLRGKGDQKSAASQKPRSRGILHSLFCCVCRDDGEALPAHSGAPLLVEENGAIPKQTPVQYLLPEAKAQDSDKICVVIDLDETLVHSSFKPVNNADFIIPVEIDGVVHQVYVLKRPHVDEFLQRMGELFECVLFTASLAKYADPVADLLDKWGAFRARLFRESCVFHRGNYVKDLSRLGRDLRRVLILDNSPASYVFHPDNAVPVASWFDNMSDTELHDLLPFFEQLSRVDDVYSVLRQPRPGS

cells = type: functional
[8] = reduction of Shn3 3'UTR-driven luciferase in osteoblasts – cell-based, Clone20 osteoblasts, firefly luciferase, cherry-picked, dose response (AID 624132); type: functional;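 further: firefly luciferase luminescence from reporter carrying the Shn3 3'UTR in osteoblasts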
[9] = target: Glyceraldehyde-3-phosphate dehydrogenase (Homo sapiens, UniProt P04406)
Chain of Glyceraldehyde-3-phosphate dehydrogenase (P04406 whole entry): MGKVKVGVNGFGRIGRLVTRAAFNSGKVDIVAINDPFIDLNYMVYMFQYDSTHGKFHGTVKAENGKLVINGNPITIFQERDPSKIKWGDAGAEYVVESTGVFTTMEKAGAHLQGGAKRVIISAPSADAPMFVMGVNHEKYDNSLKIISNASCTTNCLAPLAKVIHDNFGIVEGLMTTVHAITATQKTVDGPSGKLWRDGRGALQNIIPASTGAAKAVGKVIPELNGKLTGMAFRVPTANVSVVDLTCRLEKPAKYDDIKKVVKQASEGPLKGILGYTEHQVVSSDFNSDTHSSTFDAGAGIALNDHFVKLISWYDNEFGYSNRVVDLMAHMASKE

Chain of FAD-linked sulfhydryl oxidase ALR (P55789 whole entry): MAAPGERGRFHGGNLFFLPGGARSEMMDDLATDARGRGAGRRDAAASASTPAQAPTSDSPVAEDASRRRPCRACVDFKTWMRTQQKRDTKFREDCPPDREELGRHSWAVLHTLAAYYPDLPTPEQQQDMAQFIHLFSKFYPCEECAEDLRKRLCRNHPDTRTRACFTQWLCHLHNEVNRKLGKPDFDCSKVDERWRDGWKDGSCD

In the case of `Cc1cc(O)n2cc(-c3ccccc3)nc2n1`, the AC50 [1] is reported as 13.9 µM (active).

For `C=C(C)CSc1cc(C)c(C#N)c2nc3ccccc3n12`, the CC50 [2] was 10.1 µM (active).

For `COc1ccc(-c2nc3c(n2O)CCc2c-3no[n+]2[O-])cc1`, the EC50 [3] was > 120 µM (not active), the EC50 [4] was 22.2 µM (active) and the EC50 (H4) was 15 µM (active).

In the case of `O=C(N/N=C/c1ccc(Cl)cc1)c1cc2c(s1)-c1ccccc1CC2`, the EC50 [5] is reported as 9.47 µM (active), the EC50 [6] is reported as 10.5 µM (active) and the IC50 [7] is reported as 20 µM (active).

With `O=C1Nc2ccc(S(=O)(=O)NCc3ccco3)c3cccc1c23` the IC50 [7] was 10.8 µM (active).

With `CCOC(=O)c1cc(-c2c(Cl)cccc2Cl)no1` the IC50 (cells) was 23 µM (active).

With `O=S(=O)(Nc1ccc2c(c1)OCO2)c1ccc(F)c(F)c1` the AC50 [1] was 5.12 µM (active).

For `COC(=O)c1ccccc1N=C(S)N(Cc1ccc2c(c1)OCO2)Cc1cc2cc(OC)ccc2nc1O`, the AC50 [8] was 10.4 µM (active).

With `COc1cccc(NCc2cc(=O)oc3cc(-c4ccccc4)c(O)cc23)c1` the EC50 [3] was 21.8 µM (active), the EC50 [4] was 15.2 µM (active) and the EC50 (H4) was 20 µM (active).

With `O=[N+]([O-])c1c(O)oc2ccccc2/c1=N\c1ccccc1O` the IC50 (cells) was 7.4 µM (active).

With `CC1CCCC(C)N1c1nnc(N)s1` (centres undefined) the AC50 [1] was 2.31 µM (active).

In the case of `O=C1C(Cl)=C(N2CCN(CCOCCO)CC2)C(=O)N1c1ccc(C(F)(F)F)cc1`, the IC50 [9] is reported as > 50 µM (inconclusive).

In the case of `O=C1/C(=C\c2ccncc2)CCc2ccccc21`, the CC50 [2] is reported as > 40 µM (active).

In the case of `O=S1(=O)N=C(N/N=C/C=C/c2ccccc2)c2ccccc21`, the IC50 (cells) is reported as 30.6 µM (active).

For `Cc1ccc(NC(=O)c2cnn(-c3ccccc3)c2C)c(C)c1`, the EC50 [3] was 0.463 µM (active), the EC50 [4] was 37.9 µM (active) and the EC50 (H4) was > 120 µM (not active).

In the case of `CC1(C)c2[nH]c3ccccc3c2C[C@@H]2C(=O)N(Cc3ccccc3F)C(=O)N21`, the CC50 [2] is reported as > 40 µM (active).
